In one assay the target is T1, p38 α2 (Homo sapiens, UniProt Q16539).
T1 construct: His; made in house; host or cells: E. coli
Briefly: p38 kinase in vitro assay. The format is biochemical. Conditions: in words. The procedure:
Purified and His-tagged p38 α2 (expressed in E. Coli) was activated in vitro by MMK-6 to a high specific activity. Using a microtiter format, all reactions were conducted in 100 μL volumes with reagents diluted to yield 0.05 μg/well of activated p38 α2 and 10 μg/well of myelin basic protein in assay buffer (25 mM HEPES 7.4, 20 mM MgCl2, 150 mM NaCl). Test compounds (5 μL of a 10% DMSO solution in water) were prepared and diluted into the assay to cover a final concentration range from 5 nM to 2.5 μM. The kinase assay was initiated by addition of 25 μL of an ATP cocktail to give a final concentration of 10 μM cold ATP and 0.2 μCi [gamma-^33P] ATP per well (200-400 dpm/pmol of ATP). The plate was incubated at 32° C. for 35 min., and the reaction quenched with 7 μL of a 1 N aq HCl solution. The samples were harvested onto a P30 Filtermat (Wallac, Inc.) using a TomTec 1295 Harvester (Wallac, Inc.), and counted in a LKB 1205 Betaplate Liquid Scintillation Counter (Wallac, Inc.). Negative controls included substrate plus ATP alone. SW1353 cellular assay: SW1353 cells (human chondro-sarcoma) are seeded (1000 cells/100 μL DMEM 10% FCS/well) into 96-well plates and incubated overnight. […] Cultures are incubated for 48 h at 37° C., then supernatant IL-6 values are determined by ELISA.

Assay [1] has as its system PDGFR-beta phosphorylation in aortic smooth muscle cells. Briefly: pPDGFR-beta sandwich ELISA in AoSMC cells. The format is cell-based. Conditions: PDGF-BB stimulated. The protocol: 100K P3-P6 Aortic SMC were plated in each well of 12-well cluster in 1000 μL volume/well of SGM-2 using standard cell culture techniques. Next day, cells were rinsed with 1000 μL D-PBS once, then serum starved in 500 μL SBM (smooth muscle cell basal media) with 0.1% BSA overnight. Compounds were diluted at a dose range from (10 μM to 1 nM in 10-fold dilution steps in DMSO. Final DMSO concentration 0.1%). Remove old media by inversion into the sink quickly then add 100 μL of each dilution to corresponding well of cells for 1 h at 37° C. Cells were then stimulated with 10 ng/mL PDGF-BB ligand for 7 min at 37° C. The media is decanted and 150 μL of isotonic lysis buffer with protease inhibitor tablet (Complete; EDTA-free) and 0.2 mM Na vanadate is added. Cells are lysed for 15 min at 4° C. on shaker in cold room. […]
Table 2 illustrates the results of two cellular assays for raf kinase activity, which are (i) inhibition of pERK in MDA-MB231 cells, a mechanistic readout of raf kinase activity, and (ii) a proliferation assay of MDA-MB231 cells, a functional assay of raf kinase activity. In addition, Table 2 illustrates the results of PDGFR driven phosphorylation of PDGFR-beta in aortic smooth muscle cells, which is a mechanistic readout of PDGFR kinase inhibition.
For orientation: In an ELISA, binding on a coated surface is turned into a signal by an enzyme label.

For a further assay, the target named is T2, Flk-1 (murine VEGFR-2) (Mus musculus, UniProt P35918).
T2 construct: 7 nM Flk-1 (kinase domain)
T2 sequence (P35918 832-1160 limits assumed): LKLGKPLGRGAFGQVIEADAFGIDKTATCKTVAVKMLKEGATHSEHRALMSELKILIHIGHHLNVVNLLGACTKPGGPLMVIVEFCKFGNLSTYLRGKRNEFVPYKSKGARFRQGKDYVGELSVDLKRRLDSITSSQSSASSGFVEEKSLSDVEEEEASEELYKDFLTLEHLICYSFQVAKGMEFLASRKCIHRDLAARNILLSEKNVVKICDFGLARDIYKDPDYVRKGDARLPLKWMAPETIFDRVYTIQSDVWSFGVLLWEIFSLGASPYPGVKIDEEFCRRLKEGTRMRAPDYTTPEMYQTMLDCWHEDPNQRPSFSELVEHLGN
Briefly: Flk-1 (murine VEGFR-2) biochemical assay (TR-FRET). Conditions: in words. (In general: Time-resolved FRET reads energy transfer from a long-lived donor to a nearby acceptor.)

Assay [2] deals with MDA MB-231 human breast carcinoma cells. Briefly: MDA-MB231 proliferation assay. The assay is classed as cell-based. The protocol:
Human breast carcinoma cells (MDA MB-231, NCI) were cultured in standard growth medium (DMEM) supplemented with 10% heat-inactivated FBS at 37° C. in 5% CO2 (vol/vol) in a humidified incubator. Cells were plated at a density of 3000 cells per well in 90 μL growth medium in a 96 well culture dish. In order to determine T0h CTG values, 24 hours after plating, 100 μL of CellTiter-Glo Luminescent Reagent (Promega) was added to each well and incubated at room temperature for 30 minutes. Luminescence was recorded on a Wallac Victor II instrument. […]
Test compounds are dissolved in 100% DMSO to prepare 10 mM stocks. […] The cells with and without individual test compounds were incubated for 72 hours at which time ATP dependent luminescence was measured, as described previously, to yield T72h values. Optionally, the IC50 values can be determined with a least squares analysis program using compound concentration versus percent inhibition.
% Inhibition=[1−(T72h test−T0h)/(T72h ctrl−T0h)]×100, where • T72h test=ATP dependent luminescence at 72 hours in the presence of test compound • T72h ctrl=ATP dependent luminescence at 72 hours in the absence of test compound • T0h=ATP dependent luminescence at Time Zero

SMILES strings stand for the structures.

T1 sequence (Q16539 whole entry): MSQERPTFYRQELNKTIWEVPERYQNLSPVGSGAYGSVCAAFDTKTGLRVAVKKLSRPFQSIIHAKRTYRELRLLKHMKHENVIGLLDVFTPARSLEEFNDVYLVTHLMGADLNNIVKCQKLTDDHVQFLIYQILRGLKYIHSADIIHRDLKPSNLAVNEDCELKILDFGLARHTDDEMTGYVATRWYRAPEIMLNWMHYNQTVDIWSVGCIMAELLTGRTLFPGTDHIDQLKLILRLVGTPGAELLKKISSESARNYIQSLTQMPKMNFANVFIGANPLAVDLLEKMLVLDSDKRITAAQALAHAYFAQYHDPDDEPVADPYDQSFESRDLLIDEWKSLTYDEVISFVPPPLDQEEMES
Procedure for Flk-1 (murine VEGFR-2): This assay was performed in 96-well opaque plates (Costar 3915) in the TR-FRET format. Reaction conditions are as follows: 10 μM ATP, 25 nM poly GT-biotin, 2 nM Eu-labelled phospho-Tyr Ab, 10 nM APC, 7 nM Flk-1 (kinase domain), 1% DMSO, 50 mM HEPES pH 7.5, 10 mM MgCl2, 0.1 mM EDTA, 0.015% BRIJ, 0.1 mg/mL BSA, 0.1% mercapto-ethanol). Reaction is initiated upon addition of enzyme. Final reaction volume in each well is 100 μL. Plates are read at both 615 and 665 nM on a Perkin Elmer Victor V Multilabel counter at about 1.5-2.0 hours after reaction initiation. Signal is calculated as a ratio: (665 nm/615 nm)*10000 for each well.
For IC50 generation for both PDGFR and Flk-1, compounds were added prior to the enzyme initiation. A 50-fold stock plate was made with compounds serially diluted 1:3 in a 50% DMSO/50% dH2O solution. […] The data were expressed as percent inhibition: % inhibition=100−((Signal with inhibitor-background)/(Signal without inhibitor-background))*100

Regarding `CNC(=O)c1cc(Oc2ccc(NC(=O)Nc3ccc(Cl)c(C(F)(F)F)c3)c(F)c2)ccn1` [Example 1, 4{4-[3-(4-chloro-3-trifluoromethylphenyl)-ureido]-3-fluorophenoxy}-pyridine-2-carboxylic acid methylamide], the “inhibition of p38 kinase” value on p38 α2 was “significant inhibition”. In addition, the half-inhibitory concentration (IC50) (commonly the concentration that gives 50% inhibition) stood at 43.6 nM in assay [1] and 600 nM in assay [2] (Homo sapiens, MDA-MB-231 cells, 72 hours). Besides, the “inhibition of VEGFR2 kinase” value on Flk-1 (murine VEGFR-2) is on record as “significant inhibition”. Further, the inhibition of proliferation entry in assay [2] (in words) was “significant inhibition”.

Values taken from patent publication US20130183268A1, “DRUG COMBINATIONS WITH FLUORO-SUBSTITUTED OMEGA-CARBOXYARYL DIPHENYL UREA FOR THE TREATMENT AND PREVENTION OF DISEASES AND CONDITIONS” (BAYER HEALTHCARE LLC, priority 2010, published 2013).
